Patent US11293023B2, “Tunable endogenous protein degradation” (Dana-Farber Cancer Institute, Inc., priority 2015, dated 2022)

Key:
Assay type in all cases: cell-based
[1] = test system: KRAS signaling (pMEK and pAKT); test: Immunoblot of downstream surrogates of KRAS signaling in NIH3T3 cells expressing dTAG-KRAS; conditions: NIH3T3 FKBP*-KRASG12V, 1 uM, 24 hours
Procedure: (§1) FIG. 11 is an immunoblot of NIH3T3 cells expressing KRASG12V allele fused to FKBP* in the N-terminus or C-terminus. Cells were treated with 500 nM dFKBP7 for the indicated time. Cells were harvested and immunoblotted to measure degradation of FKBP*-KRASG12V and downstream surrogates of KRAS signaling (e.g. pMEK and pAKT).
(§2) FIG. 12 is an immunoblot of NIH3T3 cells expressing FKBP* fused to the N-terminus of KRASG12V treated with 1 uM of the indicated dFKBP heterobifunctional compounds for 24 hours. Cells were harvested and immunoblotted to measure degradation of FKBP*-KRASG12V and downstream surrogates of KRAS signaling (e.g. pMEK and pAKT).
as §2, with “FIG. 13” for “FIG. 12”, “with” for “with 1 uM of”, “indicated concentrations of dFKBP13” for “indicated dFKBP heterobifunctional compounds”
(§3) FIG. 14 is an immunoblot of NIH3T3 cells expressing FKBP* fused to the N-terminus of KRASG12V treated with 1 uM dFKBP13 for the indicated time. Cells were harvested and immunoblotted to measure degradation of FKBP*-KRASG12V and downstream surrogates of KRAS signaling (e.g. pMEK and pAKT).
(§4) Cells were treated with 500 nM dFKBP7 for the indicated time. Cells were harvested and immunoblotted to measure degradation of FKBP*-KRAS and downstream surrogates of KRAS signaling (e.g. pMEK and pAKT).
(§5) In an effort to identify the best performing dFKBP molecule, dTAG-KRAS degradation was profiled across a series of dFKBP molecules. Western blotting of NIH3T3 cells expressing dTAG-KRASG12V were treated with 1 μM of the indicated dFKBP heterobifunctional compounds for 24 hours. Cells were harvested and immunoblotted to measure degradation of FKBP*-KRAS and downstream surrogates of KRAS signaling (e.g. pMEK and pAKT).
(§6) Western blotting of NIH3T3 cells expressing FKBP* fused to the N-terminus of KRAS treated with the indicated concentrations of dFKBP13 for 24 hours. Cells were harvested and immunoblotted to measure degradation of FKBP*-KRAS and downstream surrogates of KRAS signaling (e.g. pMEK and pAKT).
(§7) To evaluate the kinetic control of targeted degradation of dTAG-KRAS, dFKBP13 was administered by increased duration. Western blotting of NIH3T3 cells expressing FKBP* fused to the N-terminus of KRAS treated with 1 μM dFKBP13 for the indicated time. Cells were harvested and immunoblotted to measure degradation of FKBP*-KRAS and downstream surrogates of KRAS signaling (e.g. pMEK and pAKT).
(§8) The dFKBP13 heterobifunctional compound potently degrades dTAG-KRAS mutant alleles. NIH3T3 cells were engineered to express KRAS alleles either WT or mutant forms of amino acid glycine 12 (G12C, G12D, and G12V). Western blotting of NIH3T3 cells expressing dTAG fused to the N-terminus of KRAS alleles were treated with 1 uM of dFKBP13 for 24 hours. Cells were harvested and immunoblotted to measure degradation of dTAG-KRAS and downstream surrogates of KRAS signaling (e.g. pMEK and pAKT).
as §8, with “express” for “express KRAS alleles”, “KRAS alleles (G13D, Q61L,” for “forms of amino acid glycine 12 (G12C, G12D,”, “Q61R).” for “G12V).”

FKBP*-KRASG12V = test: Immunoblot of FKBP*-KRASG12V (dTAG-KRAS) degradation in NIH3T3 cells
Procedure: as §1, §2
as §3, with “13” for “14”, “the indicated concentrations of” for “1 uM”, “24 hours.” for “the indicated time.”
as §3
FIG. 15 is an immunoblot of NIH3T3 cells expressing dTAG-KRASG12V pretreated with 1 uM Carfilzomib (proteasome inhibitor), 0.5 uM MLN4924 (neddylation inhibitor), and 10 uM Lenalidomide (CRBN binding ligand) for two hours prior to a 4 hour treatment with dFKBP13.
as §4, §5, §6, §7
NIH3T3 cells (CRBN-WT) were engineered to express dTAG-KRASG12V. Cells were pretreated with 1 uM Carfilzomib (proteasome inhibitor), 0.5 uM MLN4924 (neddylation inhibitor), and 10 uM Lenalidomide (CRBN binding ligand) for two hours prior to a 4 hour treatment with dFKBP13. Lysates were prepared and western immunoblot analysis performed. […] Pre-treatment with the NAE1 inhibitor MLN4924 rescued dTAG-KRASG12V expression establishing dependence on CRL activity, as expected for cullin-based ubiquitin ligases that require neddylation for processive E3 ligase activity. Pre-treatment with excess Lenalidomide abolished dFKBP13-dependent dTAG-KRASG12V degradation, confirming the requirement of CRBN engagement for degradation.

[2] = target: T1, FKBP* (FKBP12 F36V), HA-tagged (Homo sapiens, UniProt P62942, F37V); test: Immunoblot of FKBP* degradation in 293FT cells (CRBN-WT or CRBN−/−)
T1 construct: expressed in transfected cells; host or cells: 293FT cells (CRBN-WT or CRBN-/-)
T1 sequence (P62942 2-108 F37V limits assumed): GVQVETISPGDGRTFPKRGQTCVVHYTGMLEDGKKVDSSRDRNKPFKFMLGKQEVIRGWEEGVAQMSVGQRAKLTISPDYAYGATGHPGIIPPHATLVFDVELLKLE
Procedure: 293FT cells (CRBN-WT or CRBN−/−) expressing either HA-tagged FKBP12WT or FKBP* were treated with indicated concentrations of dFKBP7 for 4 hours.
Isogenic 293FT cells (CRBN-WT or CRBN−/−) expressing either FKBP12WT or FKBP* were treated with 100 nM of either dFKBP7 or dFKBP13 for 4 hours.
Isogenic 293FT cells (CRBN-WT or CRBN−/−) expressing HA-tagged FKBP* were treated with the indicated dose of dFKBP13 for 4 hours.
(§9) 293FT cells (CRBN-WT) expressing FKBP* were pretreated with 1 uM Carfilzomib (proteasome inhibitor), 0.5 uM MLN4924 (neddylation inhibitor), and 10 uM Lenalidomide (CRBN binding ligand) for two hours prior to a 4 hour treatment with dFKBP13.
The dTAG is predicated on the selectivity of FKBP* specific ligands over endogenous, wild type FKBP. In 293T cells expressing wild type FKBP12 or FKBP*, dFKBP7 induces targeted degradation only in FKBP* expressing cells. […] 293FT cells (CRBN-WT or CRBN−/−) expressing either HA-tagged FKBP12WT or FKBP* were treated with indicated concentrations of dFKBP7 for 4 hours.
In 293T cells expressing wild type FKBP12 or FKBP*, treatment with dFKBP7 and dFKBP13 induces targeted degradation only in FKBP* expressing cells. Isogenic 293FT cells (CRBN-WT or CRBN−/−) were engineered to expressed either FKBP12WT or FKBP*. Cells were treated with 100 nM of either dFKBP7 or dFKBP13 for 4 hours before lysates were prepared for western immunoblot analysis.
In an effort to define the optimal concentration of dFKB13 heterobifunctional compound to induce degradation of FKBP*, degradation was measured upon treatment with increasing concentrations of dFKBP13. Isogenic 293FT cells (CRBN-WT or CRBN−/−) were engineered to expressed HA-tagged FKBP*. Cells were treated with the indicated dose of dFKBP13 for 4 hours before lysates were prepared for western immunoblot analysis.
as §9, with “were engineered to express FKBP*. Cells” for “expressing FKBP*”, “dFKBP13. Lysates were prepared and western immunoblot analysis performed.” for “dFKBP13.”

[3] = 0.5 uM MLN4924, two hours prior to a 4 hour treatment with dFKBP13
[4] = 10 uM Lenalidomide, two hours prior to a 4 hour treatment with dFKBP13
[5] = 1 uM Carfilzomib, two hours prior to a 4 hour treatment with dFKBP13

With CC[C@H](C(=O)N1CCCC[C@H]1C(=O)O[C@H](CCc1ccc(OC)c(OC)c1)c1cccc(OCC(=O)NCCCCCCCCNC(=O)COc2cccc3c2C(=O)N(C2CCC(=O)NC2=O)C3=O)c1)c1cc(OC)c(OC)c(OC)c1 (some centres unmarked) [dFKBP9] the “downstream signaling (pMEK and pAKT)” value [1] was “inhibition of downstream signaling” and the “degradation of FKBP*-KRASG12V” value (FKBP*-KRASG12V; NIH3T3, 1 uM, 24 hours) was “potent degradation”.
For NS(=O)(=O)OC[C@@H]1C[C@@H](n2ccc3c(N[C@H]4CCc5ccccc54)ncnc32)C[C@@H]1O [MLN4924, reference compound], the “effect of pretreatment on dFKBP13-induced degradation of HA-tagged FKBP*” value (shortened to “effect of pretreatment … of HA-tagged FKBP*”) [2, 3] was “rescued” and the “effect of pretreatment on dFKBP13-induced degradation of dTAG-KRASG12V” value (shortened to “effect of pretreatment … of dTAG-KRASG12V”) (FKBP*-KRASG12V; [3]) was “rescued”.
Nc1cccc2c1CN(C1CCC(=O)NC1=O)C2=O (centres unmarked) [Lenalidomide, reference compound] was tested, and the “effect of pretreatment … of HA-tagged FKBP*” value [2, 4] was “abolished” and the “effect of pretreatment … of dTAG-KRASG12V” value (FKBP*-KRASG12V; [4]) was “abolished”.
With CC(C)C[C@H](NC(=O)[C@H](CCc1ccccc1)NC(=O)CN1CCOCC1)C(=O)N[C@@H](Cc1ccccc1)C(=O)N[C@@H](CC(C)C)C(=O)[C@@]1(C)CO1 [Carfilzomib, reference compound] the “effect of pretreatment … of HA-tagged FKBP*” value [2, 5] was “rescued” and the “effect of pretreatment … of dTAG-KRASG12V” value (FKBP*-KRASG12V; [5]) was “rescued”.
